Patent US11905518B2, “Small auxin upregulated (SAUR) gene for the improvement of root system architecture, waterlogging tolerance, drought resistance and yield in plants and methods of uses” (Curators of the University of Missouri, priority 2018, dated 2024)

Tested on: NILs (NIL147_aa and NIL147_AA)
Assay: Waterlogging treatment of NILs with auxin biosynthesis inhibitor PCIB
Type: in vivo, soybean
Experimental: FIGS. 7A-7C depict involvement of auxin in the regulation of waterlogging tolerance. Complementation of qWL_Gm03 by auxin biosynthesis inhibitor in waterlogging tolerance (FIG. 7A) and induction of adventitious roots (FIG. 7B). The two lines were waterlogging treated for 10 days using water (control) and 10 μM p-Chlorophen-oxyisobutyric acid (PCIB: an auxin biosynthesis inhibitor). Then plants were allowed to recover for 7 days (left) before evaluation for flooding injury scores and adventitious root rating. Data shown are means±standard deviations of 9 biological replicates (soil pots) and each replicate contains 2 to 3 plants. Student's-t-test was used to compare means between NIL147_aa and NIL147_AA. FIG. 7C Expression of GmARF20 in the roots during waterlogging treatment. GmARF20 in soybean is the closest homologue of AtARF19 in Arabidopsis (Ha et al. 2013). Data shown are means±standard deviations of two biological replicates and each replicate contains 10 plants.
Waterlogging test were performed in both field and greenhouse. Field tests for RIL populations and fine-mapping were conducted at the Lee Farm at the DRC in Portageville, MO The evaluation of NILs were performed at four locations, including DRC (MO), Rhower Research Station (AR), Delta Research and Extension Center (MS) and Red River Research Station (LA). The soil types of the four locations were Sharkey clay (very fine, smectitic, thermic Chromic Epiaquerts). Each lines were planted in hill plots at a density of 8 seeds per plot with 1 meter spacing with 2 to 3 replications. Waterlogging treatments were imposed by flood irrigation. Water was pumped on the field when 80% of the lines within each maturity block were at the R1 growth stage (Fehr and Caviness 1977). […]
Auxin generally promotes root initiation and elongation (reviewed by Overvoorde et al. 2010). Therefore, the involvement of auxin in waterlogging tolerance was further evaluated by the treatment of an auxin biosynthesis inhibitor: p-Chlorophen-oxyisobutyric acid (PCIB) on the NILs (NIL147_aa and NIL147_AA) during waterlogging. […]

[1] = 10 μM PCIB vs water control, waterlogging treated for 10 days, 7 days recovery, NIL147_aa and NIL147_AA

Q: How did the “genotypic differences of qWL_Gm03 in waterlogging tolerance performance and formation of adventitious/aerial roots” value (10 μM PCIB during waterlogging, NIL147_aa vs NIL147_AA) turn out when `CC(C)(Oc1ccc(Cl)cc1)C(=O)O` [PCIB, p-Chlorophen-oxyisobutyric acid] was run?
A: complement the genotypic differences

Q: And the “formation of adventitious/aerial roots (adventitious root rating)” value [1]?
A: significantly impair

Q: And the “waterlogging tolerance (flooding injury scores)” value [1]?
A: significantly impair
